Source: ChEMBL document CHEMBL5576050, “Discovery of a DCAF11-dependent cyanoacrylamide-containing covalent degrader of BET-proteins” (Bioorg Med Chem Lett, 2024)
Each block holds one compound with its values, some of them ahead of it. Activity calls are given as the source filed them. The rule behind the calls is not given here.

How the values were obtained:
[1] = target: T1, Bromodomain-containing protein 4 (Homo sapiens, UniProt O60885); assay: Induction of BRD4 degradation in human KBM-7 cells at 5 uM incubated for 5 hrs by Western blotting analysis; type: cell-based
[2] = target: Bromodomain-containing protein 3 (Homo sapiens) (UniProt Q15059); assay: Induction of BRD3 degradation in human KBM-7 cells at 5 uM incubated for 5 hrs by Western blotting analysis; type: cell-based
KBM-7 [3] = assay: Downregulation of c-Myc expression in human KBM-7 cells at 5 uM after 5 hrs by Western blotting analysis; type: functional, cell-based
KBM-7 [4] = assay: Downregulation of c-MYC expression in DCAF11 knockout human KBM-7 cells at 5 uM after 6 hrs by Western blotting analysis; type: functional, cell-based
[5] = target: T1, Bromodomain-containing protein 4; assay: Induction of BRD4 degradation in human KBM-7 cells at 5 uM pretreated with […] binder 11 for 1 hr followed by compound addition and measured after 5 hrs by Western blotting analysis; type: cell-based
[6] = target: T1, Bromodomain-containing protein 4; assay: Induction of BRD4S-BFP in DCAF11 knockout human K-BM7 cells transduced with sgRNA-resistant wild-type DCAF11 at 5 uM incubated for 6 hrs by flow cytometry analysis; type: cell-based; settings: KBM-7
[7] = target: T1, Bromodomain-containing protein 4; assay: Induction of HA-tagged BRD4S degradation in human KBM-7 cells at 5 uM pretreated with carfilzomib for 1 hr followed by compound addition and measured after 6 hrs by Western blotting analysis; type: cell-based
[8] = target: Bromodomain-containing protein 3 (Homo sapiens) (UniProt Q15059); assay: Induction of BRD3 degradation in human KBM-7 cells at 5 uM pretreated with carfilzomib for 1 hr followed by compound addition and measured after 6 hrs by Western blotting analysis; type: cell-based
[9] = target: Bromodomain-containing protein 3 (Homo sapiens) (UniProt Q15059); assay: Induction of BRD3 degradation in DCAF11 knockout human KBM-7 cells at 5 uM after 6 hrs by Western blotting analysis; type: cell-based
[10] = target: T1, Bromodomain-containing protein 4; assay: Induction of nLuc-tagged BRD4S degradation in human KBM-7 cells by nanoluciferase based assay; type: cell-based; settings: time 2-24 hrs, TDE = time-dependent effect
[11] = target: T1, Bromodomain-containing protein 4; assay: Induction of BRD4 degradation in human KBM-7 cells at 5 uM pretreated with […] binder 12 for 1 hr followed by compound addition and measured after 5 hrs by Western blotting analysis; type: cell-based
[12] = target: T1, Bromodomain-containing protein 4; assay: Induction of HA-tagged BRD4S degradation in human KBM-7 cells at 5 uM after 5 to 20 hrs by Western blotting analysis; type: cell-based; settings: time 5-20 hrs
[13] = target: Bromodomain-containing protein 2 (Homo sapiens) (UniProt P25440); assay: Induction of BRD2 degradation in human KBM-7 cells at 5 uM pretreated with […] binder 11 for 1 hr followed by compound addition and measured after 5 hrs by Western blotting analysis; type: cell-based
[14] = target: T1, Bromodomain-containing protein 4; assay: Induction of nLuc-tagged BRD4S degradation in human KBM-7 cells incubated for 2 to 24 hrs by nanoluciferase based assay; type: cell-based; settings: for Activity: time 2-24 hrs
[15] = target: T1, Bromodomain-containing protein 4; assay: Induction of HA-tagged BRD4S degradation in human KBM-7 cells at 5 uM pretreated with bortezomib for 1 hr followed by compound addition and measured after 6 hrs by Western blotting analysis; type: cell-based
[16] = target: Bromodomain-containing protein 3 (Homo sapiens) (UniProt Q15059); assay: Induction of BRD3 degradation in human KBM-7 cells at 5 uM pretreated with bortezomib for 1 hr followed by compound addition and measured after 6 hrs by Western blotting analysis; type: cell-based
[17] = target: Bromodomain-containing protein 3 (Homo sapiens) (UniProt Q15059); assay: Induction of BRD3 degradation in human KBM-7 cells at 5 uM pretreated with […] binder 12 for 1 hr followed by compound addition and measured after 5 hrs by Western blotting analysis; type: cell-based
[18] = target: T1, Bromodomain-containing protein 4; assay: Induction of BRD4S-BFP in DCAF11 knockout human K-BM7 cells transduced with sgRNA-resistant DCAF11 vector containing Cys-to-Ala mutant at 5 uM incubated for 6 hrs by flow cytometry analysis; type: cell-based; settings: KBM-7
[19] = target: Bromodomain-containing protein 3 (Homo sapiens) (UniProt Q15059); assay: Induction of BRD3 degradation in human KBM-7 cells at 5 uM pretreated with TAK-243 for 1 hr followed by compound addition and measured after 6 hrs by Western blotting analysis; type: cell-based
[20] = target: T1, Bromodomain-containing protein 4; assay: Induction of BRD4 degradation in DCAF11 knockout human KBM-7 cells at 5 uM after 6 hrs by Western blotting analysis; type: cell-based
[21] = target: Bromodomain-containing protein 3 (Homo sapiens) (UniProt Q15059); assay: Induction of BRD3 degradation in human KBM-7 cells at 5 uM pretreated with […] binder 11 for 1 hr followed by compound addition and measured after 5 hrs by Western blotting analysis; type: cell-based
[22] = target: T1, Bromodomain-containing protein 4; assay: Induction of HA-tagged BRD4S degradation in human KBM-7 cells at 5 uM pretreated with TAK-243 for 1 hr followed by compound addition and measured after 6 hrs by Western blotting analysis; type: cell-based
[23] = target: Bromodomain-containing protein 2 (Homo sapiens) (UniProt P25440); assay: Induction of BRD2 degradation in human KBM-7 cells at 5 uM pretreated with DCAF11 binder 12 for 1 hr followed by compound addition and measured after 5 hrs by Western blotting analysis; type: cell-based

Chain of Bromodomain-containing protein 3 (Homo sapiens) (Q15059 2-726 limits assumed): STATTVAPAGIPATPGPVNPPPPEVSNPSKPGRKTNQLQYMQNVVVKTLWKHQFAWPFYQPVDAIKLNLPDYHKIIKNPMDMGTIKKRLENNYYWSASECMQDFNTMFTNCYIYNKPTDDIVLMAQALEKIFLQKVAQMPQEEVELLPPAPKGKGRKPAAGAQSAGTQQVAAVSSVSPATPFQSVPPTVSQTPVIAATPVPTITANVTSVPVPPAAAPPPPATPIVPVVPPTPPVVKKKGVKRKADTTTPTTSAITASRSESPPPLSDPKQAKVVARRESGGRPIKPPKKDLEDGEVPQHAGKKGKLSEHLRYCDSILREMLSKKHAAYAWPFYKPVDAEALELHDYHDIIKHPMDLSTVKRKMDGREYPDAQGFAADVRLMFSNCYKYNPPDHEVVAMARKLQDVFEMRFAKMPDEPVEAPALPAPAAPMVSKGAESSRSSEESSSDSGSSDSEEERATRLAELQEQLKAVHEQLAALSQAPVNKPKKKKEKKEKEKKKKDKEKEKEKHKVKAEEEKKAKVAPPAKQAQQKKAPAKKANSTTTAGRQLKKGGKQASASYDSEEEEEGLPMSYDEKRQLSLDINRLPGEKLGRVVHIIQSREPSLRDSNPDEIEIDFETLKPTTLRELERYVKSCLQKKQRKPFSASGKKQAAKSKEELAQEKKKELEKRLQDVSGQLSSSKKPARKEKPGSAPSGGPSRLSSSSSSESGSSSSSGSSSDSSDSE
Chain of Bromodomain-containing protein 2 (Homo sapiens) (P25440 whole entry, looked up): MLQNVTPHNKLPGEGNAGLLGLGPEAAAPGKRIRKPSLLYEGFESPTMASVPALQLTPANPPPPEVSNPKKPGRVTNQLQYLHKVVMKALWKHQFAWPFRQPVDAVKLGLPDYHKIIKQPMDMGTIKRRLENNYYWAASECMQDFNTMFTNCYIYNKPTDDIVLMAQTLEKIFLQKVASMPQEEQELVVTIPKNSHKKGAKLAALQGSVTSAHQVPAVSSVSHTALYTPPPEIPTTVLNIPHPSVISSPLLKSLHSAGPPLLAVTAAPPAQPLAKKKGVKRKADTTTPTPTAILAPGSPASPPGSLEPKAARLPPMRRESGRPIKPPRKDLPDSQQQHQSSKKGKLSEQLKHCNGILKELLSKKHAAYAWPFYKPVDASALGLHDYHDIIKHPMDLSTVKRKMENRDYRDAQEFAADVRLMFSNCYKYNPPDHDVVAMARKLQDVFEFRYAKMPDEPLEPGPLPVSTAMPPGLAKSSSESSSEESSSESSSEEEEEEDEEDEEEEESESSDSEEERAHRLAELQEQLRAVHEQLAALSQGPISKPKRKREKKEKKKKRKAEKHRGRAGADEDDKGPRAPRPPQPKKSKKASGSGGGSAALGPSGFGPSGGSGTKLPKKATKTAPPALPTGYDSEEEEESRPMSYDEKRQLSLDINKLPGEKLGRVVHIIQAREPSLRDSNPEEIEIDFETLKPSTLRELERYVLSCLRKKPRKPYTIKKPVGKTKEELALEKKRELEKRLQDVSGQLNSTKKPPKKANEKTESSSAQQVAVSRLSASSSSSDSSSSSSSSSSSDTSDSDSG

Activity [1]: Active
Activity [2]: Active
Structure (SMILES): Cc1sc2c(c1C)C(c1ccc(Cl)cc1)=N[C@@H](CC(=O)NCCCCCCNC(=O)COc1ccc(CNC(=O)CCc3ccc4ccccc4c3)cc1)c1nnc(C)n1-2
Activity (KBM-7 [3]): inactive

Activity [5]: inactive
Activity [6]: Active
Activity [7]: inactive
Activity [8]: inactive
Activity [9]: inactive
Activity [10]: Tde
Activity [11]: inactive
Activity [1]: Active
Activity [2]: Active
Activity [12]: Active
Activity [13]: inactive
DC50 [14]: 305 nM
Activity [14]: Dose-Dependent Effect
Activity [15]: inactive
Activity [16]: inactive
Activity [17]: inactive
Activity [18]: inactive
Activity [19]: inactive
Activity [20]: inactive
Activity [21]: inactive
Activity [22]: inactive
Activity [23]: inactive
Structure (SMILES): Cc1sc2c(c1C)C(c1ccc(Cl)cc1)=N[C@@H](CC(=O)NCCCCCCNC(=O)COc1ccc(CNC(=O)/C(C#N)=C/c3ccc4ccccc4c3)cc1)c1nnc(C)n1-2
Activity (KBM-7 [4]): Active
Activity (KBM-7 [3]): Active

Activity [1]: Active
Activity [2]: Active
Activity [14]: inactive
Structure (SMILES): Cc1sc2c(c1C)C(c1ccc(Cl)cc1)=N[C@@H](CC(=O)NCCCCCCNC(=O)COc1ccc(CNC(=O)/C=C/c3ccc4ccccc4c3)cc1)c1nnc(C)n1-2
Activity (KBM-7 [3]): inactive

Activity [10]: Tde
DC50 [14]: 396 nM
Activity [14]: Dose-Dependent Effect
Structure (SMILES): Cc1sc2c(c1C)C(c1ccc(Cl)cc1)=N[C@@H](CC(=O)NCCOCCOCCNC(=O)COc1ccc(CNC(=O)/C(C#N)=C/c3ccc4ccccc4c3)cc1)c1nnc(C)n1-2
